This note sets out measurements from publication PMC7393355, “A FRET-based screening method to detect potential inhibitors of the binding of CNNM3 to PRL2” (Scientific Reports, 2020).

Assay [1] concerns binding of CNNM3-YPet and CyPet-PRL2 (CNNM3-PRL2 complex). Kind of assay: FRET-based inhibition test of the binding of CNNM3-YPet and CyPet-PRL2. On the set-up: species or system human. The following applies: CNNM3-YPet 200 nM, CyPet-PRL2 200 nM, n = 6. On the procedure:
FRET measurements were conducted in TBS (50 mM Tris–HCl (pH 8.0) and 150 mM NaCl). Proteins were mixed in 96-well plates and incubated at R.T. for 1 h. Fluorescence intensities were measured using an excitation wavelength of 435 nm and an emission wavelength of 530 nm with a Cytation 3 (BioTek).
The emission spectra were measured with each component at 200 nM using the Cytation 3 (BioTek) with 435 nm excitation (Supplementary Fig. 2), and the original data are shown in Supplementary Table 1. The FRET intensity was calculated by Eq. (1).1 IFRET=IA-raw-Dleakage-Adirect where IA-raw is the intensity measured at 530 nm with 435 nm excitation, Dleakage is the leakage of the donor emission into the acceptor wavelength (530 nm) upon donor excitation, and Adirect is the direct excitation of the acceptor with the donor wavelength (435 nm).
The inhibition of complex formation was assayed by pre-incubating the binding partner (200 nM) with inhibitory factors (1, 10 μM) for 20 min at R.T., followed by addition of the other protein (200 nM) (Figs. 3B, 4C). The effects of divalent cations (10 mM) and nucleotides (3 mM) were also assayed similarly (Fig. 5).
The peptides for the peptide inhibition test were synthesized by Shanghai Dechi Biosciences (Fig. 6C,D). The peptide sequences were as follows: peptide 1, IVQKVNNEGEGDPFYEVLG; peptide 2, […] (an S–S bond was formed between the cysteine residues, as verified by HPLC and mass spectrometry). The peptides were dissolved in TBS buffer at 10 mM before use.
FRET data were evaluated by subtracting backgrounds (fluorescence intensities of CyPet-PRL2, CNNM3-YPet and a blank well). All data analysis was performed using GraphPad Prism 6 (GraphPad Software) with the methods described in each legend.

For assay [2], the system named is PRL2. Put plainly: Isothermal titration calorimetry (ITC) with PRL2. In kind it is binding, human. The conditions noted are these: 25 °C, cell 20 μM PRL2, syringe 200 μM ligand, 20 mM Tris-HCl pH 7.0, 50 mM NaCl, 1 mM TCEP, 2% DMSO, repeated twice. On the procedure: ITC experiments were performed by ITC200 (GE Healthcare, USA). PRL2 and CNNM3 CBS domain proteins were purified in Buffer A (20 mM Tris–HCl (pH 7.0), 50 mM NaCl, and 1 mM TCEP). JMS-053 (Aobious, USA) was dissolved in 100% DMSO at 10 mM, further diluted to 200 μM with Buffer A. The ITC cell was thermally equilibrated at 25 °C and then filled with 250 μl of 20 μM PRL2, while the syringe was filled with 40 μl of 200 μM JMS-053 or CNNM3 CBS protein. In the case of JMS-053, 2% DMSO at a final concentration was added into PRL2 protein solution. Data were analysed by Microcal Origin software.

As for `[Zn+2]` [Zn^2+], the “decrease of FRET intensity by divalent cation” value in assay [1] (10 mM divalent cation) amounted to 90.3%.

For `Nc1ncnc2c1ncn2[C@@H]1O[C@H](COP(=O)(O)OP(=O)(O)O)[C@@H](O)[C@H]1O` [ADP, reference compound], in assay [1] (3 mM nucleotide), the “alteration of FRET intensity by nucleotide” value was determined as 9.6%.

`N=C1C(=O)NC(=O)c2cc(-c3ccccc3)sc21` [JMS-053, reference compound]: in assay [1], the “effect on the interaction between CNNM3 and PRL2 (in words)” value was “no effect”. The “interaction with PRL2 by ITC (in words)” value in assay [2] is “no interaction”.

`[Mg+2]` [Mg^2+]: the “effect of divalent cation on FRET intensity (in words)” value in assay [1] (10 mM divalent cation) is “no effect on the FRET intensity”.

As for “LAICQRVNNEGEGDPFYEVCGIVT (an S–S bond was formed between the cysteine residues (disulfide) [peptide 2, longer CNNM CBS loop peptide with two residues mutated to cysteine to form an S–S bond]”, the “inhibition of complex formation” value is listed as 20% in assay [1] (peptide 100 μM) and 50% in assay [1] (peptide 500 μM).

“IVQKVNNEGEGDPFYEVLG [peptide 1, shorter synthesized peptide derived from the CNNM CBS loop]”: in assay [1] (peptide 100 μM), the “effect of peptide on complex formation (in words)” value is given as “failed to interrupt complex formation”.
